Marks after values point to notes of the source that are not given here.
Assays:
[1] = tested on: Salmonella enterica (ATCC 14028); assay: Disc diffusion antimicrobial screening, Salmonella enterica; type: cell-based; settings: 100 µg/disc
Method: All compounds were screened for their antimicrobial activity at the Microbiology and Immunology Department, Faculty of Pharmacy, Beni-Suef University. The antimicrobial activity screening was carried out using the disc diffusion method, as described earlier, with some adjustments.
For each indicator microbe, a solution of half McFarland turbidity was prepared in sterile saline, followed by surface streaking of the strains on Mueller-Hinton agar with a sterile cotton swab. Then, sterile filter paper discs (5 mm diameter) preloaded with 100 µg of each compound were applied to the surface of the pre-inoculated plates. Then, the plates were chilled at 4 °C for 100 min before being incubated overnight at the proper temperature for microbial growth. Finally, the diameter of the inhibition zones around each disc was measured to evaluate the antimicrobial activity of the compounds. Ciprofloxacin was used as a standard antibacterial agent at a concentration of 20 µg/disc. Furthermore, DMSO-loaded discs were used as a negative control.

DPPH free radical assay = type: biochemical; settings: 540 nm, 30 min, relative to Trolox
Method: (§1) Preparation of samples was occurred at the following concentrations: Samples 3a, 4a, 5b, 5d and 5e at final concentrations of 0.5 mg/ml in methanol: DMSO 9:1 v/v. Samples 4b and 4d at final concentrations 0.025 mg/ml in methanol: DMSO 9:1 v/v, sample 5a at final concentrations 0.25 mg/ml in methanol: DMSO 9:1 v/v, Sample 4c, 5c and 4e at final concentrations 0.05 mg/ml in methanol: DMSO 9:1 v/v, sample 3b at final concentration 0.75 mg/ml methanol: DMSO 9:1 v/v. A stock solution of 100 µM concentration of Trolox, a standard used in this experiment, was prepared in methanol from which seven concentrations were prepared, including 50, 40, 30, 20, 15, 10 and 5 µM.
The DPPH (2,2-diphenyl-1-picryl-hydrazyl-hydrate) free radical assay was carried out according to the method of Boly et al. 2016[39]. Briefly, freshly prepared DPPH reagent (100 µl, 0.1% in methanol) was added to 100 µl of the sample on 96 well plates (n = 6). The reaction was incubated at room temp for 30 min in the dark. After completion of the incubation time, the reduction in DPPH colour intensity was measured at 540 nm. Data obtained was represented as means ± SD, according to the following equation, percentage inhibition = [(Average absorbance of blank – average absorbance of the test)/(Average absorbance of blank)] *100. The results were recorded using a microplate reader, FluoStar Omega.
Microsoft Excel® was used to analyse the obtained results. The IC50 values were calculated using Graph pad Prism 6® by converting the concentrations to their logarithmic value and selecting the non-linear inhibitor regression equation (log (inhibitor) vs. normalised response – variable slope equation). The methods used and the final test report (R-SO7320) were obtained from Nawah Scientific.

[2] = tested on: TNF-α in RAW264.7 macrophage cells; assay: In vitro measurement of TNF-α in RAW264.7 macrophage cells (RT-qPCR); type: cell-based
Description: Both Lipopolysaccharides (LPS) and hispidin were purchased from Sigma (Sigma-Aldrich, St. Louis, MO, USA)[40]. The foetal bovine serum (FBS) and Dulbecco’s modified Eagle’s medium (DMEM) were purchased from Hyclone (General Electric Healthcare Life Sciences, Mississauga, Canada), penicillin streptomycin (P/S) was purchased from Solarbio (Solarbio life sciences, Beijing, P. R. China). Results of all in vitro anti-inflammatory screening were obtained from the confirmatory diagnostic unit, VACSERA, Egypt.
DMEM was used to cultivate the macrophage cells RAW264.7 (Shanghai BOGO Industrial Co., Ltd., Shanghai, China), and supplemented with 10% FBS and 1% P/S (100 U/ml and […], respectively). […] They were treated with various concentrations of hispidin, then with 1 μg/ml LPS for the indicated time.
PBS (1 ml/well) was used to wash the cells in 24-well plates. […] For the experiments, CL Buffer included MgCl2 (M1028; Sigma) or RNasin Plus RNase Inhibitor (N2615; Promega). Before use, both Bio-Rad SPR and CL buffer were equilibrated to room temperature. […] Carefully, the resulting lysates were collected and either analysed immediately or stored frozen ([…]).
RT-qPCR analysis was performed in one-step SYBR Green RT-qPCR. […] A CFX96 real-time PCR instrument (Bio-Rad) was used under the following protocol: 50uC for 10 min, 95uC for 5 min, 95uC for 10 s/61uC for 15 s/72uC for 30 s.
Total RNA purified from cells was used as an RT-qPCR quantification standard.

heart = assay: Histopathological examination of the heart; type: in vivo; settings: rats, two weeks administration, H&E stain
Method: (§2) Eighteen rats were divided into three groups at random (6 animals in each group). The first group was given a vehicle and served as normal control. […] Ketamine (100 mg/kg) was used to anaesthetise the animals on the 15th day. Blood samples were obtained from the retro orbital, allowed to clot, centrifuged at 1000 g for 15 min, and utilised to examine heart function biomarkers (LDH, CK-MB, and troponin). The abdomen of each rat was opened, and the heart was extracted and washed in ice-cold physiological saline before being harnessed for histological investigation.

[3] = Dissolution of DPPH samples in DMSO/methanol; type: physicochemical; settings: DPPH sample preparation, methanol: DMSO 9:1 v/v
Method: as §1

[4] = tested on: heart function biomarkers (LDH, CK-MB, and troponin); assay: Cardiac function biomarkers in rat serum; type: in vivo, rats; settings: 50 mg/kg/day p.o. for 2 weeks, mean ± SEM
Method: as §2

Compound | antibacterial activity against Salmonella enterica [1] | DPPH test results (µM trolox equivalent/ 1mg sample ± SD) (DPPH free radical assay) | TNF-α fold change [2] | heart histopathology finding (heart) | solubility of sample in DMSO and methanol [3] | CK-MB [4] | LDH [4] | Troponin I [4]
COc1ccc(NC(=S)N/N=C/c2cn(S(C)(=O)=O)c3ccccc23)cc1 [Compound 4e, (E)-N-(4-Methoxyphenyl)-2{[1-(methylsulfonyl)-1H-indol 3yl]methylene}hydrazinecarbothioamide] | selective antibacterial activity | 161.21 ± 7.98 µM trolox equivalent/ 1mg sample | 0.26 |  |  |  |  | 
Cc1ccc(N2C(=O)CSC2=NN=Cc2cn(S(C)(=O)=O)c3ccccc23)cc1 [Compound 5d] |  |  | 0.21 | little or no toxic effects on the heart | didn’t dissolve in DMSO nor in methanol | 0.315 ± 0.035^a,b ng/ml | 536 ± 28^a,b U/L | 0.0015 ± 0.0005^b ng/ml
